Measured values reported in patent US11389423B2, “Pharmaceutical composition, excipient for the composition and use of the composition” (priority 2018, dated 2022).

What was measured:
[1] = test system: polychromatic erythrocytes; settings: rats male and female, 20 mg/kg intraperitoneally
Experimental: To perform the micronucleus test (Schmid, 1976), different groups of rats (male and female; n=10) received three doses of CBD (500, 1000 and 2000 mg/kg) orally. The negative control group received placebo by gavage and the positive control was treated with cyclophosphamide monohydrate (20 mg/kg—Sigma-Aldrich) intraperitoneally. After 24 hours (cyclophosphamide) and 48 hours (CBD-SINT and vehicle) the end of treatments, the animals were euthanized by decapitation. The femurs were removed, the proximal epiphysis was removed to expose the medullary canal and, with the aid of a 13×4.5 mm needle and 3 mL NaCl solution (150 mM), the marrow was removed, washing the medullary canal with NaCl solution. The material was transferred to glass tubes and centrifuged at 1000 rpm/5 min. After centrifugation, the supernatant was discarded, and the deposit was resuspended with a 4% formaldehyde solution and slightly homogenized with the aid of a Pasteur pipette. A drop of this cell suspension was placed on a clean, dry slide, and then the smear was performed. The slides were dried at room temperature and, after 24 hours, stained with Leishman eosin-methylene blue and subjected to microscopic analysis. To determine the number of micronuclei, 2000 polychromatic erythrocytes were counted per animal (1000 in each slide) using an optical microscope, at 400× magnification. The analysis of the slides was blind and performed by a single evaluator.

[2] = test system: DNA of male and female rats; settings: rats male and female, 20 mg/kg intraperitoneally, 24 hours, positive control
Experimental: The negative control group received placebo by gavage and the positive control was treated with cyclophosphamide monohydrate (20 mg/kg—Sigma-Aldrich) intraperitoneally.

## O=P1(N(CCCl)CCCl)NCCCO1 (stereo not shown) [cyclophosphamide, cyclophosphamide monohydrate, reference compound]
[1]; 24 hours, positive control (C+)
  average number of MNPCE: significant increase
[1]; positive control
  ratio of polychromatic/normochromatic erythrocytes (PCE/NCE ratio): significantly changed
[2]
  increase in the frequency of damage: approximately 100%
  increase in the index of damage: approximately 100%
